Experimental data taken from US20250114486A1, “MARKED FATTY ACID DERIVATIVE, PRECURSOR COMPOUND THEREOF, AND USE THEREOF IN CONTRAST AGENT” (BEIJING NORMAL UNIVERSITY, priority 2022, published 2025).
Where “and” joins values, the source holds several entries; their conditions need not be identical. Equal values may be shown once.

How the values were obtained:
[1] = In vivo biodistribution of radioactive ^99mTc complexes in female SD rats; parameters: species or system female Sprague-Dawley (SD) rats; details: for Biodistribution: Large Intestine / Biodistribution: Small Intestine / Biodistribution: Stomach: unit % ID
Protocol: Female SD rats (180-220 g, n=3) were fasted for 12 h before the experiment, and the purified radioactive 99mTc complexes 78-81 were prepared into physiological saline (containing 10% ethanol) solutions of about 250-350 μCi/mL. 200 μL of the above solution was injected into the tail vein of female SD rats, and the rats were killed by cervical dislocation at five time points, 15, 30, 60, 120 and 240 min after the tail vein injection. The blood, brain, heart, liver, spleen, lung, kidney, muscle, bone, large intestine, small intestine, stomach and tail were collected, weighed and counted, and the count distribution of each tissue and organ was calculated (unit: % ID/g, the unit of large intestine, small intestine and stomach is % ID), and the data are the mean±standard deviation of three mice in each phase. At the same time, 200 μL of the above solution was diluted to 20 mL, which was used as the % ID without deducting the tail count.

[2] = Metabolism study in female SD rats (modified Folch extraction, ^99mTc gamma counting); type: in vivo
Protocol: Female SD rats (180-220 g, fasted overnight) were injected with […] radioactive ^99mTc complex 80 (200-300 μCi, dissolved in 10% EtOH saline, 1000 μL) (n=3) through the tail vein. Heart, intestine and liver samples were collected at 60 min and 120 min after injection. Among them, the SD rats killed at 60 min post-injection were divided into two groups: one group of fasting female SD rats were injected with saline (0.2 mL) solution containing fatty acid β-oxidation inhibitor TMZ (40 mg/kg) and our radiotracer (TMZ-administratied group), and the other group of fasting female SD rats were injected with radioactive ^99mTc complex 80 only (control group). Heart, intestine or liver samples were homogenized in a mixture of CHCl3—CH3OH in a volume ratio of 2:1, then 40% urea and 5% sulfuric acid aqueous solution were added, and they were sonicated and centrifuged at 2000 rpm for 10 min (a modified Folch extraction method). The ^99mTc gamma counting were performed on the resulting aqueous phase, organic phase and residual tissue particle phase (n=3).
In addition, the residual tissue particles obtained from the heart samples were measured for radioactivity counts, then heated and dissolved in 1 mol/L NaOH solution at 90° C. for 1 h, cooled, and then treated with 50% trichloroacetic acid (TCA). After centrifugation at 2000 rpm for 10 min, the obtained supernatant and precipitate were ^99mTc gamma counting.

[3] = heart in TMZ-administrated SD rats (TMZ 40 mg/kg), 60 min
[4] = heart in control SD rats, 60 min, percentage of total ^99mTc radioactivity counts
[5] = heart in control SD rats, 120 min
[6] = intestine in control SD rats, 60 min
[7] = intestine in control SD rats, 120 min
[8] = liver in control SD rats, 60 min
[9] = liver in control SD rats, 120 min

absolute myocardial uptake value ([1]; 60 min post-injection): 2.06 0.06 % ID/g | Biodistribution: Large Intestine ([1]; 60 min post-injection): 12.36 ± 2.55 % ID | Biodistribution: Small Intestine ([1]; 60 min post-injection): 6.75 ± 1.89 % ID | Biodistribution: Stomach ([1]; 60 min post-injection): 0.56 ± 0.27 % ID | Biodistribution: Blood ([1]; 120 min post-injection): 0.009 ± 0.001 ID %/g | Biodistribution: Bone ([1]; 120 min post-injection): 0.07 ± 0.02 ID %/g | Biodistribution: Brain ([1]; 120 min post-injection): 0.010 ± 0.005 ID %/g | Biodistribution: Heart ([1]; 120 min post-injection): 1.73 ± 0.09 ID %/g | Biodistribution: Kidney ([1]; 120 min post-injection): 1.30 ± 0.41 ID %/g | Biodistribution: Liver ([1]; 120 min post-injection): 0.18 ± 0.01 ID %/g | Biodistribution: Lungs ([1]; 120 min post-injection): 0.16 ± 0.01 ID %/g | Biodistribution: Muscle ([1]; 120 min post-injection): 0.34 ± 0.03 ID %/g | Biodistribution: Spleen ([1]; 120 min post-injection): 0.15 ± 0.01 ID %/g | Heart-to-Blood ratio ([1]; 120 min post-injection): 197.36±32.29 | Heart-to-Liver ratio ([1]; 120 min post-injection): 9.68±0.76 | Heart-to-Lungs ratio ([1]; 120 min post-injection): 11.40±3.06 | absolute myocardial uptake value ([1]; 120 min post-injection): 1.73±0.09 % ID/g | Biodistribution: Large Intestine ([1]; 120 min post-injection): 22.13 ± 2.94 % ID | Biodistribution: Small Intestine ([1]; 120 min post-injection): 5.02 ± 0.82 % ID | Biodistribution: Stomach ([1]; 120 min post-injection): 0.55 ± 0.08 % ID | Biodistribution: Blood ([1]; 240 min post-injection): 0.007 ± 0.001 ID %/g | Biodistribution: Bone ([1]; 240 min post-injection): 0.043 ± 0.003 ID %/g | Biodistribution: Brain ([1]; 240 min post-injection): 0.007 ± 0.002 ID %/g | Biodistribution: Heart ([1]; 240 min post-injection): 0.93 ± 0.09 ID %/g | Biodistribution: Kidney ([1]; 240 min post-injection): 0.49 ± 0.03 ID %/g | Biodistribution: Liver ([1]; 240 min post-injection): 0.17 ± 0.03 ID %/g | Biodistribution: Lungs ([1]; 240 min post-injection): 0.06 ± 0.01 ID %/g | Biodistribution: Muscle ([1]; 240 min post-injection): 0.22 ± 0.02 ID %/g | Biodistribution: Spleen ([1]; 240 min post-injection): 0.06 ± 0.01 ID %/g | Heart-to-Blood ratio ([1]; 240 min post-injection): 141.90±22.86 | Heart-to-Liver ratio ([1]; 240 min post-injection): 5.56±1.30 | Heart-to-Lungs ratio ([1]; 240 min post-injection): 15.00±3.18 | absolute myocardial uptake value ([1]; 240 min post-injection): 0.93±0.09 % ID/g | Biodistribution: Large Intestine ([1]; 240 min post-injection): 22.41 ± 1.13 % ID | Biodistribution: Small Intestine ([1]; 240 min post-injection): 7.36 ± 0.64 % ID | Biodistribution: Stomach ([1]; 240 min post-injection): 0.20 ± 0.02 % ID | absolute myocardial uptake peak value ([1]; peak at 60 min post-injection): 2.06±0.06 % ID/g | decrease of absolute myocardial uptake value ([1]; within 60-240 min post-injection): 54.9% | precipitated ^99mTc radioactivity count as share of residual tissue granular phase ([2]; control SD rat heart, 60 min, dissolved in 1 mol/L NaOH 90° C. 1 h, 50% trichloroacetic acid added): 86.0% | % aqueous fraction [2, 3]: 0.29 ± 0.06% | % organic fraction [2, 3]: 73.11±2.03% | % residual tissue pellet [2, 3]: 26.60±2.09% | % aqueous fraction [2, 4]: 0.50 ± 0.21% | % organic fraction [2, 4]: 31.38±2.48% | % residual tissue pellet [2, 4]: 68.54±3.66% and 68.12 ± 2.69% | % aqueous fraction [2, 5]: 0.53 ± 0.23% | % organic fraction [2, 5]: 33.20 ± 4.56% | % residual tissue pellet [2, 5]: 66.27±34.54% and 66.27 ± 4.54% | % aqueous fraction [2, 6]: 0.54 ± 0.24% | % organic fraction [2, 6]: 38.76 ± 5.69% | % residual tissue pellet [2, 6]: 60.70±5.71% | % aqueous fraction [2, 7]: 1.68 ± 0.44% | % organic fraction [2, 7]: 32.77 ± 3.98% | % residual tissue pellet [2, 7]: 65.55±3.54% | % aqueous fraction [2, 8]: 0.66 ± 0.21% | % organic fraction [2, 8]: 35.30 ± 4.75% | % residual tissue pellet [2, 8]: 64.04±4.90% | % aqueous fraction [2, 9]: 0.85 ± 0.30% | % organic fraction [2, 9]: 31.92 ± 3.83% | % residual tissue pellet [2, 9]: 67.23 ± 4.08%
SMILES: COC(C)(C)C[N+]#[C][99Tc-5]([C]#[N+]CC(C)(C)OC)([C]#[N+]CC(C)(C)OC)([C]#[N+]CC(C)(C)OC)([C]#[N+]CC(C)(C)OC)[C]#[N+]CC(C)(C)OCCCCCSCCCCC(=O)O [^99mTc complex 80]
reduction of residual tissue granular phase proportion, TMZ-treated vs control heart samples ([2]; 60 min after injection, P<0.01): 61%
